Here are results for 1 compound from patent US8263587B2, “Benzoxazepine compounds, their preparation and use” (Piramal Healthcare Limited, priority 2006, dated 2012).

Data set [1] concerns isolated rat hepatocytes. Put plainly: Inhibition of gluconeogenesis in isolated rat hepatocytes. The class given is cell-based. The conditions noted are these: Rattus norvegicus, Hepatocyte, 5 mM fructose, read-out: Gluconeogenesis (glucose production) % inhibition. The procedure: Assay protocol for determination of inhibition of gluconeogenesis by compounds in isolated rat hepatocytes:
Hepatocytes were isolated by collagenase digestion of perfused livers from male Wistar rats fasted overnight according to the method described in J. Cell. Science., 56, 233-244, 1982, the disclosure of which is incorporated by reference for the teaching of the method.
(§1) The assay was done in three groups: basal, control and test. The test compounds were added to the vials at different concentrations. The isolated hepatocytes were added to the vials and they were incubated at 37° C. for 15 min. After 15 min, 5 mM fructose (precursor for gluconeogenesis) was added to the control and test group. Vials were again incubated at 37° C. for one hour with constant shaking (80 cycles/min.). Incubation was terminated by centrifuging the reaction mixture at 3000 rpm for 5 min. The supernatant was used for determination of both glucose and lactate dehydrogenase (LDH) (Table 1).
An active compound would decrease the amount of glucose formed, which is read at 520 nm by glucose oxidase-peroxidase method.

The next data set deals with T1, hPPARα (Homo sapiens, UniProt Q07869).
T1 construct: expressed in transfected cells; host or cells: CV-1 cells
T1 sequence (Q07869 1-468): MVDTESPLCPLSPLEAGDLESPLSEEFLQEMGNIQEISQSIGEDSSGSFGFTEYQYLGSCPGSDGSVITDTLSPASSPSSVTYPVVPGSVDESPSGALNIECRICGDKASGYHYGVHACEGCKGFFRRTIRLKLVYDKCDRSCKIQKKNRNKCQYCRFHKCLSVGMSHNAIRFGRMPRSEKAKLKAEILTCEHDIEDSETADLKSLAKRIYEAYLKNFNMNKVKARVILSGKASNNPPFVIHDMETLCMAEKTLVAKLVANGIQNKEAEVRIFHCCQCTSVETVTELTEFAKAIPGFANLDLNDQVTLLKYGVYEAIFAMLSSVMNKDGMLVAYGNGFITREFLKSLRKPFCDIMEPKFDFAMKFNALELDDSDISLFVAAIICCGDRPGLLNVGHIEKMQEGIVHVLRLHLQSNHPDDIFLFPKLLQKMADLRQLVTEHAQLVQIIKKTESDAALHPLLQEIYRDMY
Description: hPPARα transactivation in cell-based assay (CV-1 cells, luciferase). The procedure:
(§2) Cell based transcription assay was employed to identify hPPAR γ/α agonists. CV-1 cells were maintained in MEM (minimum essential medium) containing 10% FBS (fetal bovine serum). Cells were seeded at a density of 80,000 cells/well in a 24-well plate one day prior to transfection. CV-1 cells were transiently transfected with hPPAR γ/α using Lipofectamine 2000. […] Receptor activation by ligands leads to activation of luciferase expression, which was measured after 15-16 h incubation. The cells were washed with PBS, lysed, and luciferase activity measured in a microplate luminometer. […] Both compounds were synthesized in-house. Maximum activation with the reference agonists was defined as 100%. Receptor activation by test compounds is presented as percentage of maximum activation caused by the respective reference agonists in Table 4(a), Table 4(b) and Table 4(c).

A further data set deals with T2, hPPARγ (Homo sapiens, UniProt P37231).
T2 construct: expressed in transfected cells; host or cells: CV-1 cells
T2 sequence (P37231 1-505): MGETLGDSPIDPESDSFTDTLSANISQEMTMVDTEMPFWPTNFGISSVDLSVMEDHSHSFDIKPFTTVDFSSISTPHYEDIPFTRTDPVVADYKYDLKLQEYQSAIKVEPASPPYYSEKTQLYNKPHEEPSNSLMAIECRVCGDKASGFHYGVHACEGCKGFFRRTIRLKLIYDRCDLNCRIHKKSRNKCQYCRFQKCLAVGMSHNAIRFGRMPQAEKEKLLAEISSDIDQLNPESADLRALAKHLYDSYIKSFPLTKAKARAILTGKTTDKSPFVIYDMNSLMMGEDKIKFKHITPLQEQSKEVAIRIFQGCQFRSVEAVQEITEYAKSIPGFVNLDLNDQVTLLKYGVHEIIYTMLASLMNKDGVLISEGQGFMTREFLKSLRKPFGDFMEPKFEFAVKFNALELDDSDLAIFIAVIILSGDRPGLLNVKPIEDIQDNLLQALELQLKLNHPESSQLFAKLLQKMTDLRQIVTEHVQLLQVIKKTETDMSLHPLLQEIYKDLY
Description: hPPARγ transactivation in cell-based assay (CV-1 cells, luciferase). The procedure:
as §2

Data set [2] concerns isolated rat hepatocytes. Description: LDH leakage from isolated rat hepatocytes. The class given is cell-based. To be noted: one entry 'No leakage' for all concentrations tested of the compound (up to 100 μM). The procedure: as §1
The LDH activity is measured, by the method described in Meth. Enz. Ana. 3, 118-125, 1984, the disclosure of which is incorporated by reference for the teaching of the method, as the amount of pyruvate consumed by continuously monitoring the decrease in absorbance due to oxidation of NADH (Nicotinamide Adenine Dinucleotide-reduced form) at 339 nm.
(In general: LDH in the medium is a marker of cell lysis.)

`O=C1NC(=O)C(Cc2ccc3c(c2)CN(c2nc4ccccc4o2)CCO3)S1` (centres unmarked) [Compound of Example 7, 5-(4-Benzooxazol-2-yl-2,3,4,5-tetrahydro-benzo[f][1,4]oxazepin-7-yl-methyl)-thiazolidine-2,4-dione]: the inhibition – broadly, the percentage by which the read-out fell short of the control – at 3 µM with isolated rat hepatocytes [1] (3 μM) came to 12%. For the same compound, the inhibition at 30 µM in the data set with isolated rat hepatocytes [1] (30 μM) came out at 19%. In the data set with isolated rat hepatocytes [1] (100 μM), the inhibition at 100 µM was 50%. The “PPARα (Fold activation at 20 μM)” value at hPPARα (20 μM, CV-1 cells transfected with hPPARα) stood at 1.5 fold. In addition, the Emax at 20 µM on hPPARα (CV-1, read-out: PPARα activation as percentage of maximum activation by Wy-14643) worked out at 47%. At hPPARγ (1 μM, CV-1 cells transfected with hPPARγ), the “PPARγ (Fold activation at 1 μM)” value was determined as 0.7 fold. Moreover, on hPPARγ (CV-1, read-out: PPARγ activation as percentage of maximum activation by rosiglitazone), the Emax at 1 µM amounted to 9%. Besides, in the data set with isolated rat hepatocytes [2], the LDH % leakage result is “No”.
